Measured values reported in patent US12662478B2, “ATF6 modulators and uses thereof” (Altos Labs, Inc., priority 2019, dated 2026).

Target: T1, ATF6 (Homo sapiens, UniProt P18850)
T1 construct: endogenous in cells; host or cells: U2-OS (ATCC HTB-96) stably transduced with the Cignal Lenti ATF6 luc reporter (Qiagen #CLS-6031L)
T1 sequence (P18850 1-670): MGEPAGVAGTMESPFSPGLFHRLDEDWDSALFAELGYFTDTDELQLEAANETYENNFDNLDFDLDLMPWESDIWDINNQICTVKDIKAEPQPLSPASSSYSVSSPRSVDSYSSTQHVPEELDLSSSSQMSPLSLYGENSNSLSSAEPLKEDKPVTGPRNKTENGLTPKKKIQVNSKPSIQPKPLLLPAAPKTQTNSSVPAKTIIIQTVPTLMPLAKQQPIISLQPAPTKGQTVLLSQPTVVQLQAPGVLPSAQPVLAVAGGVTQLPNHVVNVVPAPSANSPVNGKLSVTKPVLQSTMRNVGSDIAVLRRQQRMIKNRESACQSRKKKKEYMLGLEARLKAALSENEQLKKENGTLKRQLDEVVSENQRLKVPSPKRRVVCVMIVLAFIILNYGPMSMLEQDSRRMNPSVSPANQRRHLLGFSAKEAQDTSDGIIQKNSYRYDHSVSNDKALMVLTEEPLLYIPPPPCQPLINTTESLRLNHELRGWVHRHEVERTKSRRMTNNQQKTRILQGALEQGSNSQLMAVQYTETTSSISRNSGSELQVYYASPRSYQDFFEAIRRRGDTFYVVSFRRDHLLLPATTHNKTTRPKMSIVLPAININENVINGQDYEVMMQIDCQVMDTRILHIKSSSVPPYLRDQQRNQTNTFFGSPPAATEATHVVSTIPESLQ
Experiment: ERSE ATF6-luciferase assay in presence of Tg-induced ER stress (U2-OS ATF6 TRE-luciferase reporter cells)
Format: cell-based
Conditions: in presence of ER stress (thapsigargin), Tg only = 100%; for activity at 1 µM / activity at 10 µM: U2OS, 8 h; for activity at 1 µM / ATF6 activity @ 1 μM [%]: 1 μM test compound; for activity at 10 µM / ATF6 activity @ 10 μM [%]: 10 μM test compound; for ATF6 activity @ 1 μM [%] / ATF6 activity @ 10 μM [%]: 8 hr
Description: To understand how exemplary compounds of the invention modulate the activity of ATF6 in absence or presence of endoplasmic reticulum (ER) stress, a Human bone osteosarcoma (U2-OS)-based TRE-luciferase reporter stable cell line was generated to determine the modulation of transcription of ATF6 target genes.
U2-OS cells were obtained from the American Type Culture Collection (ATCC HTB-96, ATCC Manassas, VA) and were cultured with growing medium containing Dulbecco's Modified Eagle's Medium (DMEM) (Cat. No.: SH30023.02, HyClone) supplemented with fetal bovine serum (FBS) 10% (Cat. No.: 16000044, Gibco) and 1% penicillin-streptomycin antibiotic cocktail (Cat. No.: SV30010, Hyclone).
Cignal Lenti ATF6 luc reporter (Qiagen #CLS-6031L) was used to produce a stable cell line in U2-OS cells (U2-OS ATF6 TRE-luciferase reporter). The lenti ATF6 reporter is a preparation of replication incompetent, VSV-g pseudotyped lentivirus particles expressing the firefly luciferase gene under the control of a minimal (m)CMV promoter and tandem repeats of the ATF6 transcriptional response element (TRE). The number of response elements as well as the intervening sequence between response elements has been experimentally optimized to maximize the signal to noise ratio.
Exemplary compounds of the invention and reference compounds were prepared from powder as 10 mM stock solutions in dimethyl sulfoxide (DMSO; Cat. No. #D2650, Sigma Aldrich) and stored at −80° C. in presence of N2 neutral atmosphere.
For the primary screening, 40,000 U2-OS ATF6 TRE-luciferase reporter cells were plated in poly-D-lysine (Cat. No.: P2636, Sigma) pre-coated white 96-well plates (Thermo Scientific Nunc #136101) with 100 μL of growing medium. Cells were incubated in humidified chambers for 24 hr.
For testing exemplary compounds in presence of ER-stress, cells were pre-treated for 30 min with 50 μL growing medium containing either vehicle (DMSO), 1 or 10 μM test compound. After this pre-incubation, 50 μL of a solution containing 0.2 μM of the ER stress-inducer thapsigargin (Tg) was added to the appropriate wells. The Tg solution also contains vehicle or test compounds at 1 or 10 μM as indicated. The final concentration of DMSO in each well was kept at 0.3%. Plates were incubated for 8 hr in humidified chambers.
After the 8 hr incubation, plates were cooled down to room temperature for 10 min prior to the luciferase assays. Luciferase reactions were performed using Luciferase Assay System (Cat. No.: E4550, Promega). Briefly, each well was washed with 100 μl of PBS 1× and, then, 20 μl of lysis reagent was added into each well. Plates were shaken for 10 min and, then, 50 μl of Luciferase Assay Reagent was added to each well. Luminescence was determined by integration of 1 s with a gain of 110 in a Synergy 4 Microplate reader. All measurements were carried out in triplicate.
The average activity determined from the wells containing vehicle only (DMSO, 0% of ATF6 activity) was used as blank and subtracted from the rest of measurements. The average activity determined from the wells containing Tg only was used as 100% of ATF6 activity. The percentage of modulation of exemplary compounds was calculated by normalizing values to potential maximal activation with Tg.
ATF6 activities of exemplary compounds at 1 and 10 μM in presence Tg-induced ER stress tested in the U2-OS ATF6 TRE-luciferase reporter cells were determined and are shown in Table 2-2 and Table 3-2.

SMILES | activity at 1 µM (Table 2-2) | activity at 10 µM (Table 2-2) | ATF6 activity @ 1 μM [%] (Table 2-2) | ATF6 activity @ 1 μM [%] (Table 2-3) | ATF6 activity @ 10 μM [%] (Table 2-2) | ATF6 activity @ 10 μM [%] (Table 2-3)
O=C(Nc1cnn(Cc2ccc(C(F)(F)F)cc2C(F)(F)F)c1)c1cc(-c2ccco2)on1 [Ceapin-A7, reference compound] | – | – | −−− (−−− refers to <50% at 1 or 10 μM test compound) | −−− (−−− refers to <50% at 1 or 10 μM test compound) | −−− (−−− refers to <50% at 1 or 10 μM test compound) | −−− (−−− refers to <50% at 1 or 10 μM test compound)
CC(c1ccc(C(F)(F)F)cc1C(F)(F)F)n1cc(/C=C\c2nnc(-c3ccccn3)s2)cn1 (centres unmarked) [Compound 2-8, (Z)-2-(2-(1-(1-(2,4-bis(trifluoromethyl)phenyl)ethyl)-1H-pyrazol-4-yl)vinyl)-5-(pyridin-2-yl)-1,3,4-thiadiazole] | – | – | + (+ refers to 100% < % activity < 125% at 1 or 10 μM) | – | −− (−− refers to 50% < % activity < 75% at 1 or 10 μM test compound) | –
CC(c1ccc(C(F)(F)F)cc1C(F)(F)F)n1cc(CCc2nnc(-c3ccccn3)s2)cn1 (centres unmarked) [Compound 2-9, 2-(2-(1-(1-(2,4-bis(trifluoromethyl)phenyl)ethyl)-1H-pyrazol-4-yl)ethyl)-5-(pyridin-2-yl)-1,3,4-thiadiazole] | 75 to 100% | < 50% | – | – | – | –
CC(c1ccc(C(F)(F)F)cc1C(F)(F)F)n1cc(/C=C/c2nnc(-c3ccccn3)s2)cn1 (centres unmarked) [Compound 2-5, (E)-2-(2-(1-(1-(2,4-bis(trifluoromethyl)phenyl)ethyl)-1H-pyrazol-4-yl)vinyl)-5-(pyridin-2-yl)-1,3,4-thiadiazole] | 100 to 125% | < 50% | – | – | – | –
CC(c1ccc(C(F)(F)F)cc1C(F)(F)F)n1cc(C#Cc2nnc(-c3cnccn3)s2)cn1 (single isomer, unassigned) [Compound 2-22, 2-((1-(1-(2,4-bis(trifluoromethyl)phenyl)ethyl)-1H-pyrazol-4-yl)ethynyl)-5-(pyrazin-2-yl)-1,3,4-thiadiazole] | – | – | −− (−− refers to 50% < % activity < 75% at 1 or 10 μM test compound) | – | − (− refers to 75% < % activity < 100% at 1 or 10 μM) | –
CC(c1ccc(C(F)(F)F)cc1C(F)(F)F)n1cc(/C=C\c2nnc(-c3ccccn3)s2)cn1 (centres unmarked) [Compound 2-7, (Z)-2-(2-(1-(1-(2,4-bis(trifluoromethyl)phenyl)ethyl)-1H-pyrazol-4-yl)vinyl)-5-(pyridin-2-yl)-1,3,4-thiadiazole] | – | – | + (+ refers to 100% < % activity < 125% at 1 or 10 μM) | – | − (− refers to 75% < % activity < 100% at 1 or 10 μM) | –
Cc1nn(C(C)c2ccc(C(F)(F)F)cc2C(F)(F)F)cc1C#Cc1nnc(-c2ccccn2)s1 (single isomer, unassigned) [Compound 2-24, 2-((1-(1-(2,4-bis(trifluoromethyl)phenyl)ethyl)-3-methyl-1H-pyrazol-4-yl)ethynyl)-5-(pyridin-2-yl)-1,3,4-thiadiazole] | – | – | −−− (−−− refers to <50% at 1 or 10 μM test compound) | – | −−− (−−− refers to <50% at 1 or 10 μM test compound) | –
CC(c1ccc(C(F)(F)F)cc1C(F)(F)F)n1cc(C#Cc2nnc(-c3ccccn3)s2)cn1 (centres unmarked) [Compound 2-1, 2-((1-(1-(2,4-bis(trifluoromethyl)phenyl)ethyl)-1H-pyrazol-4-yl)ethynyl)-5-(pyridin-2-yl)-1,3,4-thiadiazole] | – | – | −− (−− refers to 50% < % activity < 75% at 1 or 10 μM test compound) | – | −−− (−−− refers to <50% at 1 or 10 μM test compound) | –

Further lines, with some results ahead:

activity at 1 µM (Table 2-2) | activity at 10 µM (Table 2-2) | SMILES | ATF6 activity @ 1 μM [%] (Table 2-2) | ATF6 activity @ 1 μM [%] (Table 2-3) | ATF6 activity @ 10 μM [%] (Table 2-2) | ATF6 activity @ 10 μM [%] (Table 2-3)
50 to 75% | 75 to 100% | CC(c1ccc(C(F)(F)F)cc1C(F)(F)F)n1cc(C#Cc2nnc(-c3cnccn3)s2)cn1 (centres unmarked) [Compound 2-10, 2-((1-(1-(2,4-bis(trifluoromethyl)phenyl)ethyl)-1H-pyrazol-4-yl)ethynyl)-5-(pyrazin-2-yl)-1,3,4-thiadiazole] | – | – | – | –
50 to 75% | 75 to 100% | FC(F)(F)c1ccc(Cn2cc(C#Cc3nnc(-c4ccccn4)s3)cn2)c(C(F)(F)F)c1 [Compound 2-4, 2-((1-(2,4-bis(trifluoromethyl)benzyl)-1H-pyrazol-4-yl)ethynyl)-5-(pyridin-2-yl)-1,3,4-thiadiazole] | – | – | – | –
< 50% | < 50% | CC(c1ccc(C(F)(F)F)cc1C(F)(F)F)n1cc(C#Cc2nnc(-c3ccccn3)s2)cn1 (centres unmarked) [Compound 2-2, 2-((1-(1-(2,4-bis(trifluoromethyl)phenyl)ethyl)-1H-pyrazol-4-yl)ethynyl)-5-(pyridin-2-yl)-1,3,4-thiadiazole] | – | – | – | –
– | 50 to 75% | Cc1nn(C(C)c2ccc(C(F)(F)F)cc2C(F)(F)F)cc1C#Cc1nnc(-c2ccccn2)s1 (single isomer, unassigned) [Compound 2-23, 2-((1-(1-(2,4-bis(trifluoromethyl)phenyl)ethyl)-3-methyl-1H-pyrazol-4-yl)ethynyl)-5-(pyridin-2-yl)-1,3,4-thiadiazole] | − (− refers to 75% < % activity < 100% at 1 or 10 μM) | – | – | –
50 to 75% | 50 to 75% | Cc1nn(C(C)c2ccc(C(F)(F)F)cc2C(F)(F)F)cc1C#Cc1nnc(-c2ccccn2)s1 (centres unmarked) [Compound 2-11, 2-((1-(1-(2,4-bis(trifluoromethyl)phenyl)ethyl)-3-methyl-1H-pyrazol-4-yl)ethynyl)-5-(pyridin-2-yl)-1,3,4-thiadiazole] | – | – | – | –
100 to 125% | – | CC(c1ccc(C(F)(F)F)cc1C(F)(F)F)n1cc(/C=C\c2nnc(-c3ccccn3)s2)cn1 (centres unmarked) [Compound 2-6, (Z)-2-(2-(1-(1-(2,4-bis(trifluoromethyl)phenyl)ethyl)-1H-pyrazol-4-yl)vinyl)-5-(pyridin-2-yl)-1,3,4-thiadiazole] | – | – | −− (−− refers to 50% < % activity < 75% at 1 or 10 μM test compound) | –
– | 75 to 100% | CC(c1ccc(C(F)(F)F)cc1C(F)(F)F)n1cc(C#Cc2nnc(-c3cnccn3)s2)cn1 (single isomer, unassigned) [Compound 2-21, 2-((1-(1-(2,4-bis(trifluoromethyl)phenyl)ethyl)-1H-pyrazol-4-yl)ethynyl)-5-(pyrazin-2-yl)-1,3,4-thiadiazole] | − (− refers to 75% < % activity < 100% at 1 or 10 μM) | – | – | –
